Measurements published in article PMC9645260, “Small-molecule inhibitors of P-Rex guanine-nucleotide exchange factors” (Small GTPases, 2022).

Experiments:
P-Rex1 DH domain = target: T1, P-Rex1 DH domain (Homo sapiens, UniProt Q8TCU6); test: Liposome-based GEF activity assay, isolated P-Rex1 DH domain; type: biochemical; conditions: 10 µM, 200 nM DH domain, without PIP3; read-out: inhibition of constitutive Rac-GEF activity of isolated P-Rex1 DH domain
T1 construct: 200 nM iDH EE-P-Rex1 DH domain (compounds 11–29); made in house; host or cells: Sf9 cells (baculovirus)
T1 sequence (Q8TCU6 49-240 limits assumed): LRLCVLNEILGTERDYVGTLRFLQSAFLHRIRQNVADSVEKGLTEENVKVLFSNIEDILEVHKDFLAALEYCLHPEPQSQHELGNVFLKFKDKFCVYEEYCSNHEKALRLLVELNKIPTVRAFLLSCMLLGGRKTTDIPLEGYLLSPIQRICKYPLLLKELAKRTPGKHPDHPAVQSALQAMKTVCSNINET
Protocol: Full-length N-terminally EE-tagged P-Rex1, P-Rex2, the P-Rex1 DH and DHPH domains and the P-Rex2 DH domain were produced in Sf9 cells using baculoviral transduction and were purified using anti-EE beads, as previously described. Briefly, frozen pellets from 500 ml of Sf9 culture infected with P-Rex expressing high-titre baculovirus were resuspended in ice-cold lysis Sf9-cell lysis buffer 2 (1x PBS, 1% Triton X-100, 5 mM EGTA, 1 mM EDTA, 25 mM NaF, 20 mM β-glycerophosphate, 1 mM DTT, 100 µM PMSF, 10 μg/ml each of leupeptin, pepstatin A, aprotinin and antipain) for 5 min and then ultracentrifuged at 118,000 × g for 1 h at 4°C. Supernatants were incubated with pre-washed anti-EE beads for 90 min on ice with end-over-end rotation. Beads were washed 4 times in wash buffer (2x PBS, 0.1% Triton X-100, 1 mM EGTA) and 5 times in elution buffer (1x PBS, 10% glycerol, 1 mM DTT, 1 mM EGTA, 0.01% Na azide), and protein was eluted by incubation with elution buffer containing Ac-EEYMPME peptide as described above. Protein was concentrated in a YM-100 Centricon (Millipore) at 5000 × g at 4°C. Fatty acid-free BSA and glycerol were added to final concentrations of 2 mg/ml and 50%, respectively. Protein concentration and purity were determined by coomassie staining of SDS-PAGE gels. Full-length Tiam1, expressed in and purified from Sf9 cells, was a kind gift from Angeliki Malliri, CRUK Manchester Institute, UK. […]
(§1) Liposome-based GEF activity assays were carried out essentially as described, except that GEFs were incubated with inhibitor compounds prior to the assay. […] Small GTPases were isolated using anti-EE antibody-coupled Sepharose beads or glutathione Sepharose beads, as appropriate, by incubation on ice for 90 min with end-over-end rotation, four washes in ice-cold wash buffer and resuspension of beads in Ultima Gold scintillation fluid (Perkin Elmer). ^35S-GTPγS incorporation was assessed by scintillation counting (Packard 1600TR, Liquid Scintillation Analyser).

Tiam1 (full-length) = target: T2, Tiam1 (full-length) (Homo sapiens, UniProt Q13009); test: Liposome-based GEF activity assay, Tiam1; type: biochemical; conditions: 10 µM, 50 nM full-length Tiam1
T2 construct: Full-length Tiam1, expressed in and purified from Sf9 cells; host or cells: Sf9 cells
T2 sequence (Q13009 whole entry): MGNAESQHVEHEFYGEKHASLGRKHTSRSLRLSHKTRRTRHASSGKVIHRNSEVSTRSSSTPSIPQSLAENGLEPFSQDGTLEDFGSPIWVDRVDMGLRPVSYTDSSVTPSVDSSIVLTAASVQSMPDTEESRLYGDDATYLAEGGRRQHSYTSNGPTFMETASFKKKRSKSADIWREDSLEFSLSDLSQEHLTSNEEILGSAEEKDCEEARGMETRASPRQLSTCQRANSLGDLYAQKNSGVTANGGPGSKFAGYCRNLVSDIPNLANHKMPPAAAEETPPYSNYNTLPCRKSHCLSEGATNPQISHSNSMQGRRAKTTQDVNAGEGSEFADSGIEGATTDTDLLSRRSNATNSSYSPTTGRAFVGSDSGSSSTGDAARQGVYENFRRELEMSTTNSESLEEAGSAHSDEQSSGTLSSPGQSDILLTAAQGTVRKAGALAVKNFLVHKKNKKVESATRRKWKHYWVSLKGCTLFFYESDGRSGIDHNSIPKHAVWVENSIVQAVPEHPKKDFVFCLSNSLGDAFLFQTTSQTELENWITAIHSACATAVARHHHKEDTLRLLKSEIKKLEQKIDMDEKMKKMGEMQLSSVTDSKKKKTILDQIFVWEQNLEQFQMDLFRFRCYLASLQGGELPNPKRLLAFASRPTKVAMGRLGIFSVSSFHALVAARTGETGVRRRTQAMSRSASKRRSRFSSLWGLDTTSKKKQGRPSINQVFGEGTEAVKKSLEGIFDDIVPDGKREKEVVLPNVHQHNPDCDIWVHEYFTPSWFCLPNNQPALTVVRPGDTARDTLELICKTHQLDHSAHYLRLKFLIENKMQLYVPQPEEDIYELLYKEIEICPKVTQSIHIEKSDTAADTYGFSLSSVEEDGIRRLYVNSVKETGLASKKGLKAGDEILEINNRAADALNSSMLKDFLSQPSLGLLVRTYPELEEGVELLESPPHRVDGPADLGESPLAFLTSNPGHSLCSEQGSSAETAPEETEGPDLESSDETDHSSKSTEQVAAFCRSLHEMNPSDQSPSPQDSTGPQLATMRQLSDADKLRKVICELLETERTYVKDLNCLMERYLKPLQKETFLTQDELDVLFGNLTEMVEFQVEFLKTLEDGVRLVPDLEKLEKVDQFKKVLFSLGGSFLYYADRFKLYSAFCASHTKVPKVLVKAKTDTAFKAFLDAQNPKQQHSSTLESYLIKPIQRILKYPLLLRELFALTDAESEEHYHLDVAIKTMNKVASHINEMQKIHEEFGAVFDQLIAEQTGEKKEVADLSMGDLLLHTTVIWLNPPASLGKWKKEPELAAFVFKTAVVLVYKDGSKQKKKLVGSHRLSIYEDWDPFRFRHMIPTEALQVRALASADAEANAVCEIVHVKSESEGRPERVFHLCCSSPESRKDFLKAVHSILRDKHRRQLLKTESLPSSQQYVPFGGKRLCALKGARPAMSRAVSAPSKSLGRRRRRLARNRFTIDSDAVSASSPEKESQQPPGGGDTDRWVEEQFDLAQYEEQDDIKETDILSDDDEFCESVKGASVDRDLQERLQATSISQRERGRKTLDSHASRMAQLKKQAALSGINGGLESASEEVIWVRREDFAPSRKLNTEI
Protocol: Full-length N-terminally EE-tagged P-Rex1, P-Rex2, the P-Rex1 DH and DHPH domains and the P-Rex2 DH domain were produced in Sf9 cells using baculoviral transduction and were purified using anti-EE beads, as previously described. Briefly, frozen pellets from 500 ml of Sf9 culture infected with P-Rex expressing high-titre baculovirus were resuspended in ice-cold lysis Sf9-cell lysis buffer 2 (1x PBS, 1% Triton X-100, 5 mM EGTA, 1 mM EDTA, 25 mM NaF, 20 mM β-glycerophosphate, 1 mM DTT, 100 µM PMSF, 10 μg/ml each of leupeptin, pepstatin A, aprotinin and antipain) for 5 min and then ultracentrifuged at 118,000 × g for 1 h at 4°C. Supernatants were incubated with pre-washed anti-EE beads for 90 min on ice with end-over-end rotation. […] Protein concentration and purity were determined by coomassie staining of SDS-PAGE gels. […]
as §1

Compound: COc1ccc(-c2[nH]nc3c2C(c2ccc(-c4ccc(Cl)cc4)o2)C(C#N)=C(N)O3)cc1 (centres unmarked) [PREX-in1, 6-amino-4-[5-(4-chlorophenyl)-2-furyl]-3-(4-methoxyphenyl)-2,4-dihydropyrano[2,3-c]pyrazole-5-carbonitrile]
- inhibition at 10 µM (P-Rex1 DH domain): 98%
- effect on GEF activity of Tiam1 (Tiam1 (full-length)): none of the other GEFs were affected
